Results on 13 compounds are retold here after US20240400553A1, “AMINE BASED MATRIPTASE 2 INHIBITORS AND USES THEREOF” (Disc Medicine, Inc., priority 2023, published 2024).

The structures appear in SMILES notation. A value given as a limit tells only on which side of the number the result lay.

The target of the first assay is T1, Human Recombinant Matriptase 2 (Homo sapiens, UniProt Q8IU80).
T1 construct: made in house
T1 sequence (Q8IU80 1-811): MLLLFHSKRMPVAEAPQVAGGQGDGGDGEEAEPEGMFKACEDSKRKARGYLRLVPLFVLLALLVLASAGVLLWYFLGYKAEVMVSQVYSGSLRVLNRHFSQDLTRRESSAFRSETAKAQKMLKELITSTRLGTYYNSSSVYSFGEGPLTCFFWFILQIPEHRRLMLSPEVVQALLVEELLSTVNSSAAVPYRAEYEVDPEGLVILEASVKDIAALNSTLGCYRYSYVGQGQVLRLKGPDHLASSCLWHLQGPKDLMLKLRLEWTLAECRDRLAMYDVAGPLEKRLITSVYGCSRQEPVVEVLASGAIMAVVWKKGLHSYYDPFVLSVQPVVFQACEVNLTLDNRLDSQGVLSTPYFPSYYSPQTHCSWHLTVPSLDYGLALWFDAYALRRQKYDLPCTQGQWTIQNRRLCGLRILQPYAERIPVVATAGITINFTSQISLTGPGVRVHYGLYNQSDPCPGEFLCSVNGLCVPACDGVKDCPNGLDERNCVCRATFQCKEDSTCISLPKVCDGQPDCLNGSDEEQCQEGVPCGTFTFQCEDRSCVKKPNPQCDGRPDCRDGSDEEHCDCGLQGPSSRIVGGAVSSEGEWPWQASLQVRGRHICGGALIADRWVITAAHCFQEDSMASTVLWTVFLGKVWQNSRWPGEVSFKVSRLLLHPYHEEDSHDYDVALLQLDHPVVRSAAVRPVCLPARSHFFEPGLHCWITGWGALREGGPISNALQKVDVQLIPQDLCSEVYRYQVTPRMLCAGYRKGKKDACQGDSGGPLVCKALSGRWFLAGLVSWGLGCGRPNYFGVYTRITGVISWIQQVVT
The assay is described as follows: Matriptase 2 inhibition, fluorescence based assay (Method I). Particulars: Table A; Ki of Matriptase-2; read-out: Mat-2 Ki. It is filed as biochemical. In short, it runs like this: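 In-house recombinant enzyme (3.5 nM), preincubated 30 min with compound, then Boc-Gln-Ala-Arg-AMC substrate (62 μM) in 50 mM Tris pH 7.5, 150 mM NaCl, 0.01% gelatin, 1% DMSO, 25 °C. Fluorescence (Ex 360/Em 480 nm) read 60 min after substrate; IC50 from variable-slope sigmoidal fit of % inhibition.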
`NCc1ccc2cc(C(=O)OCCn3ccnc3)n(Cc3cc(NS(=O)(=O)Cc4ccccc4)cc4ccccc34)c2n1` [Compound 93, 2-(1H-imidazol-1-yl)-ethyl 6-(aminomethyl)-1-{[3-(phenylmethanesul-fonamido)naphthalen-1-yl]methyl}-1H-pyrrolo-[2,3-b]pyridine-2-car-boxylate]: the Ki fell in the range of 100 to 500 nM. Turning to `NCc1ccc2cc(C(=O)OCc3ccccc3)n(Cc3cc(NS(=O)(=O)Cc4ccccc4)cc4ccccc34)c2n1` [Compound 123, benzyl 6-(aminomethyl)-1-{[3-(phenylmethane-sulfonamido)naphthalen-1-yl]methyl}-1H-pyr-rolo[2,3-b]pyridine-2-carboxylate], the Ki is 500 to 3000 nM. For the compound `CN(C)CCNC(=O)c1cc2ccc(CN)nc2n1Cc1cc(NS(=O)(=O)Cc2ccccc2)cc2ccccc12` [Compound 71, 6-(aminomethyl)-N-[2-(dimethylamino)ethyl]-1-{[3-(phenylmethane-sulfonamido)naphthalen-1-yl]methyl}-1H-pyr-rolo[2,3-b]pyridine-2-carboxamide], the Ki was not above 100 nM.

In the case of `Cn1ccnc1CNC(=O)c1cc2ccc(CN)nc2n1Cc1cc(NS(=O)(=O)Cc2ccsc2)cc2ccccc12` [Compound 165], the inhibition constant Ki was not above 100 nM.

The assay is the same for the next values; noted with them: Table A; Ki of Matriptase-2 given as class symbols; read-out: Mat-2 Ki.
Regarding `CN1CCC[C@@H]1COC(=O)Nc1cc(Cn2c(C(=O)O)cc3ccc(CN)nc32)c2ccccc2c1` [Compound 336, 6-(aminomethyl)-1-({3-[({[(2R)-1-methylpyr-rolidin-2-yl]methoxy}-carbonyl)amino]naph-thalen-1-yl}methyl)-1H-pyrrolo[2,3-b]pyr-idine-2-carboxylic acid], the Ki lay in the range of 100 to 500 nM. Consider `COCCN1CCN(C(=O)Nc2cc(Cn3c(C(=O)O)cc4ccc(CN)cc43)c3ccccc3c2)CC1` [Compound 394, 6-(aminomethyl)-1-((3-(4-(2-methoxyethyl)piperazine-1-carboxamido)naphthalen-1-yl)methyl)-1H-indole-2-carboxylic acid], for which the inhibition constant (Ki) was in the range of 500 to 3000 nM. Take `COCCN1CCN(C(=O)Nc2cc(Cn3c(C(=O)O)cc4ccc(CN)nc43)c3ccccc3c2)CC1` [Compound 288, 6-(aminomethyl)-1-((3-(4-(2-methoxyethyl)piperazine-1-carboxamido)naphthalen-1-yl)methyl)-1H-pyrrolo[2,3-b]pyridine-2-carboxylic acid]: the inhibition constant (Ki) is 100 to 500 nM. As for `Cc1ccccc1CS(=O)(=O)Nc1cc(Cn2c(C(=O)O)cc3ccc(CN)nc32)c2ccccc2c1` [Compound 212, 6-(aminomethyl)-1-({3-[(2-methylphenyl)meth-anesulfonamido]naph-thalen-1-yl}methyl)-1H-pyrrolo[2,3-b]pyridine-2-carboxylic acid], the Ki is not above 100 nM.

Consider `NCc1ccc2cc(C(=O)O)n(Cc3cc(NS(=O)(=O)Cc4cccc(F)c4)cc4ccccc34)c2n1` [Compound 229, 6-(aminomethyl)-1-({3-[(3-fluorophenyl)meth-anesulfonamido]naph-thalen-1-yl}methyl)-1H-pyrrolo[2,3-b]pyridine-2-carboxylic acid], for which the Ki lay in the range of 100 to 500 nM. For the compound `COC[C@H]1CCCN1C(=O)Nc1cc(Cn2c(C(=O)O)cc3ccc(CN)nc32)c2ccccc2c1` [Compound 307], the Ki lay in the range of 500 to 3000 nM. `NCc1ccc2cc(C(=O)O)n(Cc3cc(NC(=O)OC[C@H]4CCN4Cc4ccccc4)cc4ccccc34)c2n1` (racemic) [Compound 340, rac-6-(aminomethyl)-1-({3-[({[(2R)-1-benzyl-azetidin-2-yl]methoxy}-carbonyl)amino]naph-thalen-1-yl}methyl)-1H-pyrrolo[2,3-b]pyridine-2-carboxylic acid]: the Ki lay in the range of 500 to 3000 nM. For the compound `CN(C)C(=O)N1CC[C@H](OC(=O)Nc2cc(Cn3c(C(=O)O)cc4ccc(CN)nc43)c3ccccc3c2)C1` [Compound 341], the Ki fell in the range of 500 to 3000 nM.

Staying with this assay, now noted: Table B; Human Recombinant Matriptase 2, 3.5 nM enzyme, 62 μM substrate, 30 mins preincubation; read-out: Mean Ki.
Take `CN(C)c1ccc(COC(=O)c2cc3ccc(CN)nc3n2Cc2cc(NS(=O)(=O)Cc3ccccc3)cc3ccccc23)cc1` [Compound 2.27]: the Ki is 100 to 500 nM.

Usually Ki stands for a measure of affinity in units of concentration, obtained from inhibition or displacement.
